# pIC50: −log10 of the molar value.
# Experiments:
# [1] = target: T1, Cytochrome P450 11B2, mitochondrial (Homo sapiens, UniProt P19099); experiment: Inhibition of human CYP11B2 expressed in Chinese hamster V79 MZh cells using [14C]-deoxycorticosteron as substrate measured after 6 hrs by phosphoimager analysis; format: ADME, cell-based
# T1 sequence (P19099 whole entry): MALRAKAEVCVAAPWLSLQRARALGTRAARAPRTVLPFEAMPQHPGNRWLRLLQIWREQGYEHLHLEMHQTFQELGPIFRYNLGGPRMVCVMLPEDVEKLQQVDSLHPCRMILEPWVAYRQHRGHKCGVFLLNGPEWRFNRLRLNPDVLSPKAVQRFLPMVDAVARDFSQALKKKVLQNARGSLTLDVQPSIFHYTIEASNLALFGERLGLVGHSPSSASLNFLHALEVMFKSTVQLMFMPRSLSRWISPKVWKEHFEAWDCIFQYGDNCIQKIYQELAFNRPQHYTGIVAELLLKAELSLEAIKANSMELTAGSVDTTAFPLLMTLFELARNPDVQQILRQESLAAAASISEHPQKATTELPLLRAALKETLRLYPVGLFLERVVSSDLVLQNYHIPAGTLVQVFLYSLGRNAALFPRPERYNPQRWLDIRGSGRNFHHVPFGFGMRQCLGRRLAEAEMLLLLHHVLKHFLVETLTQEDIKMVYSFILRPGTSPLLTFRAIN
# [2] = Selectivity ratio of IC50 for inhibition of human CYP11B2 to IC50 for inhibition of human CYP11B1; format: ADME
# [3] = target: T2, Cytochrome P450 11B1, mitochondrial (Homo sapiens, UniProt P15538); experiment: Inhibition of human CYP11B1 expressed in Chinese hamster V79 MZh cells using [14C]-deoxycorticosteron as substrate measured after 6 hrs by phosphoimager analysis; format: ADME, cell-based
# T2 sequence (P15538 whole entry): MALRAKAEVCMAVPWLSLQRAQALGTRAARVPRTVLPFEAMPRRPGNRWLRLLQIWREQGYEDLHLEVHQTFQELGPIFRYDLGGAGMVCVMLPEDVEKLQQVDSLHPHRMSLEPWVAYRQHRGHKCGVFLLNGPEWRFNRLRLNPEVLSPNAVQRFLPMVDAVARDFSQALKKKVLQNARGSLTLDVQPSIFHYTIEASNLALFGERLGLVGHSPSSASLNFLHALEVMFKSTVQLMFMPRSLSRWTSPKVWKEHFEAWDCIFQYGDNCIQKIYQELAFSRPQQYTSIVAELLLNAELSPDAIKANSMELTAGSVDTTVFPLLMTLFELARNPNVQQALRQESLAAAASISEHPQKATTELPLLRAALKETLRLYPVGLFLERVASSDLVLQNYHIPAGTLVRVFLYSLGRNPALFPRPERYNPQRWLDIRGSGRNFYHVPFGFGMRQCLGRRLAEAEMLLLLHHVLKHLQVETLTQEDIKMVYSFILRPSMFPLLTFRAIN
Structure (SMILES),pIC50 [1],pIC50 [3],Ratio IC50 [2]
O=C(Nc1ccc2[nH]ncc2c1)[C@]12ON=C(c3cncc(Br)c3)[C@H]1[C@@H]1CC[C@H]2C1,6.04,7.51,30
CN(C(=O)[C@]12ON=C(c3cccnc3)[C@H]1[C@@H]1CC[C@H]2C1)c1ccccc1,5.37,6.74,23
O=C(Nc1ccc2[nH]ncc2c1)[C@]12ON=C(c3cncc(-c4cccc(F)c4)c3)[C@H]1[C@@H]1CC[C@H]2C1,6.39,8.10,52
O=C(Nc1ccc2[nH]ncc2c1)[C@]12ON=C(c3cncc(-c4ccc(F)cc4)c3)[C@H]1[C@@H]1CC[C@H]2C1,6.95,8.22,19
COc1cccc(-c2cncc(C3=NO[C@]4(C(=O)Nc5ccc6[nH]ncc6c5)[C@H]5CC[C@H](C5)[C@H]34)c2)c1,6.32,7.82,32
N#Cc1ccc(NC(=O)[C@]23ON=C(c4cccnc4)[C@H]2[C@@H]2CC[C@H]3C2)cc1,5.42,7.34,83
Cc1ccncc1NC(=O)[C@]12ON=C(c3cccnc3)[C@H]1[C@@H]1CC[C@H]2C1,5.35,6.94,39
O=C(Nc1ccc2[nH]ncc2c1)[C@]12ON=C(c3cncc(-c4ccsc4)c3)[C@H]1[C@@H]1CC[C@H]2C1,5.85,7.43,39
O=C(Nc1ccc2[nH]ncc2c1)[C@]12ON=C(c3cncc(-c4ccoc4)c3)[C@H]1[C@@H]1CC[C@H]2C1,6.10,7.34,17
COc1ccc(NC(=O)[C@]23ON=C(c4cccnc4)[C@H]2[C@@H]2CC[C@H]3C2)cc1,5.40,7.10,51
N#Cc1ccc(-c2cncc(C3=NO[C@]4(C(=O)Nc5ccc6[nH]ncc6c5)[C@H]5CC[C@H](C5)[C@H]34)c2)cc1,7.24,8.70,28
O=C(Nc1ccc2[nH]ncc2c1)[C@]12ON=C(c3cncc(-c4cccc(C(F)(F)F)c4)c3)[C@H]1[C@@H]1CC[C@H]2C1,6.40,7.77,23
O=C(Nc1ccc([N+](=O)[O-])cc1)[C@]12ON=C(c3cccnc3)[C@H]1[C@@H]1CC[C@H]2C1,5.25,7.02,58
O=C(Nc1ncccn1)[C@]12ON=C(c3cccnc3)[C@H]1[C@@H]1CC[C@H]2C1,5.11,6.75,43
COc1cccc(NC(=O)[C@]23ON=C(c4cccnc4)[C@H]2[C@@H]2CC[C@H]3C2)c1,5.62,7.49,75
N#Cc1cccc(-c2cncc(C3=NO[C@]4(C(=O)Nc5ccc6[nH]ncc6c5)[C@H]5CC[C@H](C5)[C@H]34)c2)c1,6.48,7.92,27
"O=C(Nc1cccc([N+](=O)[O-])c1)[C@]12ON=C(c3cccnc3)C1[C@@H]1CCC2C1 (single isomer, unassigned)",5.58,7.19,41

# The next lines start with results.
pIC50 [1],pIC50 [3],Structure (SMILES),Ratio IC50 [2]
5.24,6.87,O=C(Nc1ccccc1F)[C@]12ON=C(c3cccnc3)[C@H]1[C@@H]1CC[C@H]2C1,43
5.52,7.24,O=C(Nc1ccc(F)cc1)[C@]12ON=C(c3cccnc3)[C@H]1[C@@H]1CC[C@H]2C1,53
5.78,7.77,O=C(Nc1cnc2[nH]ccc2c1)[C@]12ON=C(c3cccnc3)[C@H]1[C@@H]1CC[C@H]2C1,97
5.29,6.80,O=C(Nc1cccc(Cl)c1Cl)[C@]12ON=C(c3cccnc3)[C@H]1[C@@H]1CC[C@H]2C1,33
5.02,6.82,Cc1cccc(NC(=O)[C@]23ON=C(c4cccnc4)[C@H]2[C@@H]2CC[C@H]3C2)c1,63
5.66,7.46,N#Cc1cccc(NC(=O)[C@]23ON=C(c4cccnc4)[C@H]2[C@@H]2CC[C@H]3C2)c1,62
5.55,7.31,O=C(Nc1cccc(F)c1)[C@]12ON=C(c3cccnc3)[C@H]1[C@@H]1CC[C@H]2C1,58
5.53,6.97,O=C(Nc1nc2ccccc2[nH]1)[C@]12ON=C(c3cccnc3)[C@H]1[C@@H]1CC[C@H]2C1,28
5.40,7.07,O=C(Nc1cccc(F)n1)[C@]12ON=C(c3cccnc3)[C@H]1[C@@H]1CC[C@H]2C1,47
5.37,6.86,Nc1ccccc1NC(=O)[C@]12ON=C(c3cccnc3)[C@H]1[C@@H]1CC[C@H]2C1,31
5.21,6.89,Cc1ccc(NC(=O)[C@]23ON=C(c4cccnc4)[C@H]2[C@@H]2CC[C@H]3C2)cc1,49
5.01,6.72,Cc1ccccc1NC(=O)[C@]12ON=C(c3cccnc3)[C@H]1[C@@H]1CC[C@H]2C1,52
5.23,6.78,O=C(Nc1ccccc1)[C@]12ON=C(c3cccnc3)[C@H]1[C@@H]1CC[C@H]2C1,36
5.17,7.08,O=C(Nc1ccc(Cl)cc1)[C@]12ON=C(c3cccnc3)[C@H]1[C@@H]1CC[C@H]2C1,81
5.18,7.01,O=C(Nc1cccc(Cl)c1)[C@]12ON=C(c3cccnc3)[C@H]1[C@@H]1CC[C@H]2C1,69
5.68,7.60,O=C(Nc1ccc2cc[nH]c2c1)[C@]12ON=C(c3cccnc3)[C@H]1[C@@H]1CC[C@H]2C1,82
5.64,7.66,O=C(Nc1ccc2[nH]ccc2c1)[C@]12ON=C(c3cccnc3)[C@H]1[C@@H]1CC[C@H]2C1,103
5.23,6.95,COc1ccccc1NC(=O)[C@]12ON=C(c3cccnc3)[C@H]1[C@@H]1CC[C@H]2C1,53
